Laboratory results published in patent US5993815A, “Methods and compositions for inhibiting the activation of thrombin-activatable fibrinolysis inhibitor (TAFI)” (University of Vermont, priority 1997, dated 1999).

Assays:
Format in all cases: biochemical
[1] = target: T1, thrombin in complex with thrombomodulin (activation of purified human TAFI) (Homo sapiens, UniProt P00734); assay: two-stage TAFI activation assay, chromogenic substrate hippuryl arginine; conditions: FPA-CK 50 nmol/L present during incubation of TAFI with thrombin and thrombomodulin, 10 minutes at 22° C.
T1 construct: Prothrombin was purified as described previously and used to prepare thrombin; made in house
Method: In a 25-μL reaction volume, TAFI zymogen (0.8 μmol/L final concentration) is incubated with thrombomodulin (40 nmol/L final concentration), Ca^2+ (5.0 mmol/L final concentration), and thrombin (8.0 nmol/L final concentration) in the presence and absence of the putative peptide for 10 minutes at 22° C. Thrombin is then inhibited by the addition of the Phe-Pro-Arg chloromethyl ketone (FPA-CK 50 nmol/L final concentration). […] A negative control may be used by adding FPA-CK at the initiation of the reaction. In the negative control TAFI is not activated because the thrombin is inhibited from functioning. […] The time course of hippuric acid formation is measured by first correcting the volume in each of the reactions by the addition of a volume of buffer equal to that of the added putative peptide. […] The time course of hippuric acid formation at 22° C. is followed by monitoring absorbance at 254 nm and 0.5 minute intervals using a spectrophotometer such as Beckman DU-65 spectrophotometer (Fullteron, Calif.).
Hydrolysis of the chromogenic substrate, hipurryl arginine, was used to determine whether MoAbTAFI#16 inhibits active TAFI. […] The time course of hippuric acid formation at 22° C. was followed by monitoring absorbance at 254 nm and 0.5 minute intervals using a Beckman DU-65 spectrophotometer (Fullteron, Calif.). […]

[2] = target: T2, active TAFI (thrombin-activatable fibrinolysis inhibitor, plasma carboxypeptidase B) in clots formed from normal human plasma (Homo sapiens, UniProt Q96IY4); assay: turbidometric tPA-induced lysis assay of clots formed from normal human plasma (NHP); conditions: tPA 294 pmol/L, 37° C., TAFI-dependent profibrinolytic effect, read-out: EC50 (shortening of lysis time)
T2 construct: tissue Haematologic Technologies Inc. (Burlington, Vt.); host or cells: pooled (3 to 4 donors) fresh frozen human plasma
T2 sequence (Q96IY4 115-423): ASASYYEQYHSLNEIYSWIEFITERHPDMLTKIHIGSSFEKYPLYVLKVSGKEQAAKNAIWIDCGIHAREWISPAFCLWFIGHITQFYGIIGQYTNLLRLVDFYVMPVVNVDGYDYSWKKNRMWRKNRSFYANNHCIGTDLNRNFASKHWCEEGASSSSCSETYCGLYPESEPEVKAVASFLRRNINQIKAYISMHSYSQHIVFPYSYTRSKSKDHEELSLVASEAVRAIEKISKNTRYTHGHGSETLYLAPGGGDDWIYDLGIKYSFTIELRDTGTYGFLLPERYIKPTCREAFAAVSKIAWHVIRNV
Method: (§1) Preparation of plasma for lysis assays. Pooled (3 to 4 donors) fresh frozen human plasma was purchased from Haematologic Technologies Inc. (Burlington, Vt.) and dialyzed against 4 L of 20 mmol/L HEPES, 150 mmol/L NaCl, pH 7.4 (HBS) at 4° C. with 4 changes overnight. The dialysate, termed normal human plasma (NHP), was stored at -70° C. in 2.0-mL aliquots. TAFI-deficient plasma (TdP) was produced by passing an aliquot, maximally 50 mL, of NHP over a 2.0-mL anti-TAFI affinity column (MoAbTAFI#16-Sepharose 4B) equilibrated in HBS. Depletion of TAFI was verified by Western blot analysis of a sample from each individual fraction. Only the flow-through fractions depleted of TAFI with an A280 equal to the NHP loaded onto the column were pooled and subsequently stored in 2.0 mL aliquots at -70° C. Pooled plasma samples were also subjected to Western blotting and TAFI concentrations were quantified by ELISA.
(§2) Lysis assay. […] After adding the plasma to the microtiter wells, the plate was transferred to a THERMOMAX microtiter plate reader (Molecular Devices). Temperature was maintained at 37° C. and the turbidity was monitored at 405 nm and 2.5-minute intervals. […]
(§3) 3. […] The TAFI-dependent profibrinolytic effect of each compound was evaluated by determination of lysis time of clots formed from both NHP and TdP in the presence of various concentrations of each inhibitor. […]

[3] = test system: clots formed from TAFI-deficient human plasma (TdP); assay: turbidometric tPA-induced lysis assay of clots formed from TAFI-deficient plasma (TdP); conditions: every concentration studied; lysis time approximately 50 minutes
Method: as §1, §2, §3

Row | SMILES | active TAFI activity generated [1] | EC50 [2] [µM] | effect on lysis time of clots formed from TdP [3]
1 | N=C(N)NCCC[C@H](NC(=O)[C@@H]1CCCN1C(=O)[C@@H](N)Cc1ccccc1)C(=O)CCl [FPA-CK, Phe-Pro-Arg chloromethyl ketone] | No active TAFI activity was generated | – | –
2 | N=C(N)NCCSC(CC(=O)O)C(=O)O (stereo not drawn) [GEMSA, 2-Guanidinoethylmercaptosuccinic acid] | – | 90 | did not affect lysis time
